# Experimental data taken from PubChem BioAssay AID977614 (Broad Institute, 2014).
# Calls of active or inactive are those of the source.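 How the source made its calls: active means parasite count per well reduced by over 3 SD from the mean, with host cell number above 80% of untreated; inactive means the rest.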
# Tested on: L. donovani amastigotes in THP-1 macrophages, DAPI imaging, 72 h
# Assay: L. donovani intracellular amastigote growth inhibitors, imaging, THP-1 host macrophages, single concentration (AID 977614);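 further: signal is the parasite per host cell ratio from DAPI stained kinetoplasts and nuclei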
row,Structure (SMILES),AC50
1,O=C(c1ccc2c(c1)OCO2)N1C[C@H]2[C@@H](c3ccccc31)[C@H](CO)N2C(=O)CC1CC1,> 10 µM (inactive)
2,C[C@@H]1CN([C@H](C)CO)C(=O)CCCn2cc(nn2)CO[C@H]1CN(C)S(=O)(=O)c1cccc(C#N)c1,> 10 µM (inactive)
3,C/C=C/c1ccc([C@@H]2[C@@H](CN(CC)C(=O)CN(C)C)N(C(C)=O)[C@H]2CO)cc1,> 10 µM (inactive)
4,O=C(Nc1ccc(F)cc1)N1C[C@H]2[C@@H](c3ccccc31)[C@H](CO)N2Cc1ccccc1Cl,> 10 µM (inactive)
5,Cc1noc(C)c1S(=O)(=O)N(C)C[C@H]1OCc2cn(nn2)CCCC(=O)N([C@@H](C)CO)C[C@H]1C,> 10 µM (inactive)
6,CCc1csc(N2[C@H](CO)[C@H](c3ccccc3)[C@@H]2CN(C)C(=O)C2CCC2)n1,> 10 µM (inactive)
7,C[C@@H]1CN([C@@H](C)CO)C(=O)CCCn2cc(nn2)CO[C@H]1CN(C)C(=O)Nc1ccc2c(c1)OCO2,> 10 µM (inactive)
8,CC(=O)N1[C@@H](CO)[C@@H](c2ccccc2)[C@@H]1CN(CC(C)C)C(=O)c1ccccn1,> 10 µM (inactive)
9,CCN(C[C@@H]1[C@@H](c2ccccc2)[C@H](CO)N1C(C)=O)C(=O)NC1CCCC1,> 10 µM (inactive)
10,O=C(c1ccccc1F)N1C[C@H]2[C@@H](c3ccccc31)[C@H](CO)N2Cc1ccc2c(c1)OCO2,> 10 µM (inactive)
11,CN1C[C@H]2[C@@H](c3ccccc31)[C@@H](CO)N2S(=O)(=O)c1ccccc1,> 10 µM (inactive)
12,CCCNC(=O)N1[C@H](CO)[C@H]2c3ccccc3N(C(=O)Nc3cccc(Cl)c3)C[C@H]21,> 10 µM (inactive)
13,C[C@@H]1CN([C@@H](C)CO)C(=O)CCCn2nncc2CO[C@@H]1CN(C)Cc1ccccc1C(=O)O,> 10 µM (inactive)
14,C[C@@H]1CN([C@H](C)CO)C(=O)CCCn2cc(nn2)CO[C@@H]1CN(C)C(=O)Oc1ccc2ccccc2c1,> 10 µM (inactive)
15,C[C@@H]1CN([C@@H](C)CO)C(=O)CCCn2nncc2CO[C@@H]1CN(C)C(=O)Oc1cccc2ccccc12,> 10 µM (inactive)
16,C[C@@H]1CN([C@H](C)CO)C(=O)CCCn2cc(nn2)CO[C@H]1CN(C)S(=O)(=O)c1ccc(-n2cccn2)cc1,> 10 µM (inactive)
17,C[C@H]1CN([C@@H](C)CO)C(=O)CCCn2nncc2CO[C@H]1CN(C)Cc1cccc(C(F)(F)F)c1,> 10 µM (inactive)
18,COc1ccc(-c2ccc([C@@H]3[C@H](CN(C)S(C)(=O)=O)N[C@@H]3CO)cc2)cc1,> 10 µM (inactive)
19,C[C@@H]1CN([C@H](C)CO)C(=O)CCCn2nncc2CO[C@H]1CN(C)S(=O)(=O)c1ccc(Oc2ccccc2)nc1,> 10 µM (inactive)

row,Structure (SMILES),AC50
1,O=C(C1CCOCC1)N1C[C@H]2[C@@H](c3ccccc31)[C@H](CO)N2C(=O)Cc1ccccn1,> 10 µM (inactive)
2,CNC[C@H]1OCc2cn(nn2)CCCC(=O)N([C@H](C)CO)C[C@@H]1C,> 10 µM (inactive)
3,CN(C[C@@H]1N[C@H](CO)[C@H]1c1ccccc1)C(=O)c1ccccn1,> 10 µM (inactive)
4,C[C@H](CO)N1C[C@H](C)[C@H](CN(C)C(=O)Nc2ccc(-c3cccs3)cc2)OCc2cnnn2CCCC1=O,> 10 µM (inactive)
5,C[C@@H]1CN([C@H](C)CO)C(=O)CCCn2nncc2CO[C@H]1CN(C)C(=O)c1cc(-c2ccccc2)on1,> 10 µM (inactive)
6,Cc1ccc(S(=O)(=O)N2C[C@@H]3[C@H](c4ccccc42)[C@@H](CO)N3Cc2cccnc2)cc1,> 10 µM (inactive)
7,C[C@H](CO)N1C[C@H](C)[C@@H](CN(C)Cc2ccc3c(c2)OCCN3C)OCc2cnnn2CCCC1=O,> 10 µM (inactive)
8,CC(C)NC[C@@H]1[C@H](c2ccc(C3=CCCCC3)cc2)[C@H](CO)N1S(C)(=O)=O,> 10 µM (inactive)
9,Cc1noc(C)c1S(=O)(=O)N(C)C[C@@H]1OCc2cn(nn2)CCCC(=O)N([C@@H](C)CO)C[C@H]1C,> 10 µM (inactive)
10,O=C(C1CC1)N1C[C@@H]2[C@H](c3ccccc31)[C@H](CO)N2C(=O)c1ccccc1,> 10 µM (inactive)
11,C[C@@H]1CN([C@@H](C)CO)C(=O)CCCn2nncc2CO[C@H]1CN(C)S(=O)(=O)c1ccc2c(c1)OCCCO2,> 10 µM (inactive)
12,O=C(C1CCC1)N1C[C@H]2[C@@H](c3ccccc31)[C@@H](CO)N2Cc1ccccc1,> 10 µM (inactive)
13,C[C@@H]1CN([C@@H](C)CO)C(=O)CCCn2cc(nn2)CO[C@H]1CN(C)C(=O)Oc1ccc2ccccc2c1,> 10 µM (inactive)
14,COc1ccc(NC(=O)N(C)C[C@@H]2OCc3cnnn3CCCC(=O)N([C@H](C)CO)C[C@H]2C)c(OC)c1,> 10 µM (inactive)
15,C[C@H]1CN([C@@H](C)CO)C(=O)CCCn2cc(nn2)CO[C@H]1CN(C)S(=O)(=O)c1ccc(-n2cccn2)cc1,> 10 µM (inactive)
16,C[C@@H]1CN([C@H](C)CO)C(=O)CCCn2nncc2CO[C@H]1CN(C)C(=O)c1ccc2ccn(C)c2c1,> 10 µM (inactive)
17,CC(C)NC(=O)N1[C@H](CO)[C@H]2c3ccccc3NC[C@H]21,> 10 µM (inactive)
18,O=C(NC[C@@H]1[C@@H](c2ccccc2)[C@H](CO)N1Cc1cccnc1)c1ccccn1,> 10 µM (inactive)
